In PubChem BioAssay (NCI):
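Five compound concentrations were applied to cells in 96-well plates for 48 hours; endpoints were derived by simple linear interpolation of the resulting dose-response curve. GI50 is the concentration that inhibits growth by half. Definition used: TGI = concentration required for complete inhibition of growth.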

Assays:
Assay in all cases: inhibition of tumour cell growth, NCI panel, 48 h
HCT-116 colon = system: HCT-116 colon
HCT-15 colon = system: HCT-15 colon
786-0 renal = system: 786-0 renal
SK-MEL-2 melanoma = system: SK-MEL-2 melanoma
HOP-62 NSCLC = system: HOP-62 NSCLC
HCC-2998 colon = system: HCC-2998 colon
KM12 colon = system: KM12 colon
M14 melanoma = system: M14 melanoma
OVCAR-4 ovarian = system: OVCAR-4 ovarian
HT29 colon = system: HT29 colon
SNB-19 CNS = system: SNB-19 CNS
CAKI-1 renal = system: CAKI-1 renal
UACC-257 melanoma = system: UACC-257 melanoma
SNB-75 CNS = system: SNB-75 CNS
SK-MEL-28 melanoma = system: SK-MEL-28 melanoma
SF-268 CNS = system: SF-268 CNS
IGROV1 ovarian = system: IGROV1 ovarian
NCI-H460 lung = system: NCI-H460 lung
OVCAR-3 ovarian = system: OVCAR-3 ovarian
SK-OV-3 ovarian = system: SK-OV-3 ovarian
A498 renal = system: A498 renal
NCI-H522 lung = system: NCI-H522 lung
A549 NSCLC = system: A549 NSCLC
MOLT-4 leukemia = system: MOLT-4 leukemia
KM20L2 colon = system: KM20L2 colon
OVCAR-8 ovarian = system: OVCAR-8 ovarian
MALME-3M melanoma = system: MALME-3M melanoma
SW-620 colon = system: SW-620 colon
U251 CNS = system: U251 CNS
K-562 leukemia = system: K-562 leukemia
ACHN renal = system: ACHN renal
EKVX NSCLC = system: EKVX NSCLC
RPMI-8226 leukemia = system: RPMI-8226 leukemia
UACC-62 melanoma = system: UACC-62 melanoma
SF-295 CNS = system: SF-295 CNS
LOX IMVI melanoma = system: LOX IMVI melanoma
SK-MEL-5 melanoma = system: SK-MEL-5 melanoma
HL-60(TB) leukemia = system: HL-60(TB) leukemia
SF-539 CNS = system: SF-539 CNS
NCI-H226 lung = system: NCI-H226 lung
OVCAR-5 ovarian = system: OVCAR-5 ovarian
SN12C renal = system: SN12C renal
UO-31 renal = system: UO-31 renal

## CC(=O)[CH-]C(=O)c1ccccc1.CC(=O)[CH-]C(=O)c1ccccc1.O=S(=O)([O-])c1cc([O-])c2c([O-])cc(S(=O)(=O)[O-])cc2c1.[Na+].[Ti+4]
HCT-116 colon
  GI50: > 100 µM
  TGI: > 100 µM
HCT-15 colon
  GI50: > 100 µM
  TGI: > 100 µM
786-0 renal
  GI50: > 100 µM
  TGI: > 100 µM
SK-MEL-2 melanoma
  GI50: > 100 µM
  TGI: > 100 µM
HOP-62 NSCLC
  GI50: > 100 µM
  TGI: > 100 µM
HCC-2998 colon
  GI50: > 100 µM
  TGI: > 100 µM
KM12 colon
  GI50: 30.2 µM
  TGI: > 100 µM
M14 melanoma
  GI50: > 100 µM
  TGI: > 100 µM
OVCAR-4 ovarian
  GI50: 68.6 µM
  TGI: > 100 µM
HT29 colon
  GI50: > 100 µM
  TGI: > 100 µM
SNB-19 CNS
  GI50: > 100 µM
  TGI: > 100 µM
CAKI-1 renal
  GI50: > 100 µM
  TGI: > 100 µM
UACC-257 melanoma
  GI50: 77.1 µM
  TGI: > 100 µM
SNB-75 CNS
  GI50: 29.1 µM
  TGI: 87.5 µM
SK-MEL-28 melanoma
  GI50: > 100 µM
  TGI: > 100 µM
SF-268 CNS
  GI50: > 100 µM
  TGI: > 100 µM
IGROV1 ovarian
  GI50: > 100 µM
  TGI: > 100 µM
NCI-H460 lung
  GI50: > 100 µM
  TGI: > 100 µM
OVCAR-3 ovarian
  GI50: > 100 µM
  TGI: > 100 µM
SK-OV-3 ovarian
  GI50: > 100 µM
  TGI: > 100 µM
A498 renal
  GI50: > 100 µM
  TGI: > 100 µM
NCI-H522 lung
  GI50: 70.7 µM
  TGI: > 100 µM
A549 NSCLC
  GI50: > 100 µM
  TGI: > 100 µM
MOLT-4 leukemia
  GI50: 34.3 µM
  TGI: > 100 µM
KM20L2 colon
  GI50: > 100 µM
  TGI: > 100 µM
OVCAR-8 ovarian
  GI50: > 100 µM
  TGI: > 100 µM
MALME-3M melanoma
  GI50: 84.5 µM
  TGI: > 100 µM
SW-620 colon
  GI50: > 100 µM
  TGI: > 100 µM
U251 CNS
  GI50: 97.8 µM
  TGI: > 100 µM
K-562 leukemia
  GI50: > 100 µM
  TGI: > 100 µM
ACHN renal
  GI50: > 100 µM
  TGI: > 100 µM
EKVX NSCLC
  GI50: > 100 µM
  TGI: > 100 µM
RPMI-8226 leukemia
  GI50: > 100 µM
  TGI: > 100 µM
UACC-62 melanoma
  GI50: > 100 µM
  TGI: > 100 µM
SF-295 CNS
  GI50: 55.7 µM
  TGI: > 100 µM
LOX IMVI melanoma
  GI50: > 100 µM
  TGI: > 100 µM
SK-MEL-5 melanoma
  GI50: > 100 µM
  TGI: > 100 µM
HL-60(TB) leukemia
  GI50: > 100 µM
  TGI: > 100 µM
SF-539 CNS
  GI50: 83.3 µM
  TGI: > 100 µM
NCI-H226 lung
  GI50: 47.5 µM
  TGI: > 100 µM
OVCAR-5 ovarian
  GI50: > 100 µM
  TGI: > 100 µM
SN12C renal
  GI50: > 100 µM
  TGI: > 100 µM
UO-31 renal
  GI50: > 100 µM
  TGI: > 100 µM
